Each structure is given as a SMILES string. Values joined by “and” are separate entries in the source; they are usually repeats but may differ in a detail not shown here. Equal values may be shown once. Read-outs that look alike come from different tables or passages of the source.

The values below come from patent US20210030726A1 (MOUNT TAM THERAPEUTICS, INC., priority 2018, published 2021).

What all share (assay type): in vivo
The nature of series [1]: Brain concentrations after IP administration to mice (LC-MS/MS of brain homogenates). Particulars: for Concentration in Mouse Brain, individual animals / concentration at 24 h: Day 3, 24.0 hrs; for Concentration in Mouse Brain, individual animals: Animal ID 1-3; for concentration at 24 h: mouse, brain, ip. Here is the method:
To carry out these assays using brain homogenates, 20 uL of samples and matrix calibration standards into wells of a 96-well plate, and 10 uL of blank matrix allocated for matrix blanks and control blanks. 160 uL internal standard was then added to all samples except matrix blanks, and 160 uL ACN added to matrix blanks. Samples were then vortexed for 5 minutes and centrifuge for 5 minutes at >3500 rpm. 150 uL of the supernatant was then transferred to a new 96-well plate, and the plates blown down to dryness at 35° C., reconstituted with 90 uL of 70:30 water:acetonitrile (ACN) solution, covered and vortexed prior to analysis. LC and MS conditions were the same as described above for the whole blood analysis.

The test system of series [2] is 6-OHDA injected mice. In words: Anti-TH immunohistochemistry, 6-OHDA-induced TH+ neuronal loss in SN. The note with it: 10 mg/kg. Here is the method: (§1) Immunohistochemistry analysis using anti-tyrosine hydroxylase (TH) antibody was also performed to quantify 6-OHDA-induced neuronal loss in mice injected with 6-OHDA and non-injected (control) sides of the brain. […] FIG. 4B presents the mean and standard error of the mean (SEM) as well as statistical analysis of the results. […] This staining data was confirmed by staining for TH protein expression in the 6-OHDA-treated striatum.

Series [3] relates to 6-OHDA injected mice. In words: 6-OHDA cylinder test (motor performance). The note with it: 10 mg/kg, three days pre-treatment before 6-OHDA (80 μg); seven day test. Here is the method:
The data presented in FIG. 2B as mean and standard error of the mean (SEM), for a seven day test. Statistical analyses as compared to baseline mice were performed using the one-way Anova test (*: p<0.05). […] Data is presented as mean and SEM. Statistical analyses were performed using one-way Anova test (*: p<0.05; ***: p<0.001. n.s.: not significant.)

Series [4] concerns 6-OHDA injected mice. The series can be described thus: TH protein expression in 6-OHDA-treated striatum. Particulars: 3 mg/kg, two-day pre-treatment. Here is the method:
as §1

Series [5] deals with 6-OHDA injected mice. The series can be described thus: Anti-TH immunohistochemistry, 6-OHDA-induced striatal denervation. The note with it: 10 mg/kg. Here is the method:
Immunohistochemistry analysis using anti-tyrosine hydroxylase (TH) antibody was performed in mouse midbrain sections to quantify 6-OHDA-induced striatal denervation in mice injected with 6-OHDA and non-injected (control) sides of the brain. […] In contrast, both the 6-OHDA/rapamycin-treated and the 6-OHDA/Formula I-treated sides of the brain show increased staining with the anti-TH antibody, as indicated by the dark shading in those figures. FIG. 3B presents the mean and standard error of the mean (SEM) of the integrated density of anti-TH antibody staining in the striatum, as well as statistical analysis of the results for the groups of mice.

Series [6] is described as follows: Whole blood concentrations after IP administration to mice (LC-MS/MS). Particulars: for concentration at 1 h: Day 3, 1.00 hrs; for concentration at 24 h: Day 3, 24.0 hrs. Here is the method:
These determinations were made using protein precipitation, liquid chromatography (LC), and mass spectrometry (MS/MS). Ten μl aliquots of whole blood and matrix calibration standards were distributed in a 96-well plate; 10 μl aliquots of blank matrix for matrix blanks and control blanks were included as controls. Ten μl of water was added to each sample followed by vortexing. […] This was followed by a five-minute vortex at >3500 rpm. One hundred fifty μl of the resultant supernatant was then transferred to a new 96-well plate and the samples blown to dryness at 35° C. […]

[7] abbreviates: 2 mg/kg or 10 mg/kg IP QD for three days.
The mark [8] stands for this setting: mouse, whole blood, intraperitoneal, 10 mg/kg, 10 mg/kg IP QD x 3 days, Animal ID 4-6, read-out: Concentration in Mouse Whole Blood, individual animals.
[9] abbreviates: mouse, whole blood, intraperitoneal, 10 mg/kg, 10 mg/kg IP QD x 3 days, read-out: Concentration in Mouse Whole Blood, Mean.

For `CO[C@H]1C[C@@H]2CC[C@@H](C)[C@@](O)(O2)C(=O)C(=O)N2CCCC[C@H]2C(=O)O[C@H]([C@H](C)C[C@@H]2C[C@@H]3C[C@H]2C[C@H]3O)CC(=O)[C@H](C)/C=C(\C)[C@@H](O)[C@@H](OC)C(=O)[C@H](C)C[C@H](C)/C=C/C=C/C=C/1C` [Formula I, 37R-hydroxynorbornylrapamycin], the “Brain exposure (in words)” value in series [1] (setting [7]) is given as “sufficient concentrations in brain over time”. For the same molecule, the “Concentration in Mouse Brain, individual animals” value in series [1] (Group 1 (2 mg/kg) IP QD x 3 days, 2 mg/kg) was 31.1 ng/g and 39.2 ng/g and 68.1 ng/g; in series [1] (Group 2 (10 mg/kg) IP QD x 3 days, 10 mg/kg), 140 ng/g (2×) and 299 ng/g. Besides, the concentration at 24 h stood at 46.1 ng/g in series [1] (2 mg/kg, Group 1 (2 mg/kg) IP QD x 3 days); 193 ng/g in series [1] (10 mg/kg, Group 2 (10 mg/kg) IP QD x 3 days); 292 ng/mL in series [6] (setting [8]); 372 ng/mL in series [6] (setting [9]). In the series with 6-OHDA injected mice [2], the “6-OHDA-induced neuronal loss vs vehicle control (TH-positive somas in SN, FIG. 4A)” value is on record as “decreased 6-OHDA-induced neuronal loss as compared to vehicle control”. Also, the “Contralateral touches, percent total touches (FIG. 2B)” value in the series with 6-OHDA injected mice [3] was “outperformed rapamycin and the vehicle control by bringing the number of touches closer to that of baseline mice”. Besides, in the series on 6-OHDA injected mice [4], the “TH protein expression in 6-OHDA-treated striatum (FIGS. 4C-4F)” value was “non-statistically significant difference”. Further, in the series with 6-OHDA injected mice [5], the “6-OHDA-induced striatal denervation vs rapamycin (FIG. 3A)” value is “also decreased 6-OHDA-induced denervation as compared to rapamycin”. The “6-OHDA-induced striatal denervation vs vehicle control (TH integrated density, FIG. 3A)” value in the series with 6-OHDA injected mice [5] was “decreased 6-OHDA-induced denervation as compared to vehicle control”. Moreover, the “Whole blood exposure (in words)” value in series [6] (setting [7]) is listed as “sufficient concentrations in whole blood over time”. Further, the “Concentration in Mouse Whole Blood, individual animals” value in series [6] (10 mg/kg IP QD x 3 days, Day 2, 1.00 hrs, Animal ID 4-6) was “AQL (Original value above quantitation limit (1000 ng/mL))”; in series [6] (10 mg/kg IP QD x 3 days, Day 2, 6.00 hrs, Animal ID 4-6), “AQL (Original value above quantitation limit (1000 ng/mL))”. The values for the concentration at 1 h in series [6] (setting [8]) and in series [6] (setting [9]) were 2890 ng/mL and 3200 ng/mL, respectively. The molecule also came in with a concentration at 2 h in series [6] (mouse, whole blood, intraperitoneal, 10 mg/kg, 10 mg/kg IP QD x 3 days, Day 3, 2.00 hrs) of 1900 ng/mL. For the same molecule, in series [6] (mouse, whole blood, intraperitoneal, 10 mg/kg, 10 mg/kg IP QD x 3 days, Day 3, 6.00 hrs), the concentration at 6 h amounted to 1380 ng/mL.
